Laboratory results reported in patent US9248114B2, “Use of 2,5-dihydroxybenzene compounds and derivatives for the treatment of hematological dyscrasias and cancer of an organ” (Action Medicines, S.L., priority 2006, dated 2016).

Experiments:
[1] = test system: tumor cells of subcutaneous gliomas; assay: Apoptosis in sections of established subcutaneous gliomas in rats; format: in vivo; conditions: 100 mg/kg/day i.p. for 10 days
Text: Tumor cells elude the programmed cell death process or apoptosis that normal cells experience. Apoptosis induction in tumor cells is one way to confront the development of a tumor. To evaluate the effect of potassium 2,5-dihydroxybenzene sulfonate […] on tumor cell apoptosis, 6 μm thick sections of the subcutaneous gliomas described in example 4 were made. The sections were stained with hematoxylin and eosin and observed at a magnification of 313 times using immersion oil. In these conditions, cell apoptosis is shown by the existence of apoptotic bodies appearing as strongly chromogenic granules in the cell nucleus which is frequently fragmented.

[2] = target: T1, fibroblast growth factor-1 (FGF-1) (Homo sapiens, UniProt P05230); assay: Mitogenesis induced by FGF-1 in quiescent Balb/c 3T3 fibroblast cultures; format: cell-based; conditions: quiescent Balb/c 3T3 fibroblasts
Experimental: The evaluated compounds were used in the form of potassium salt, except in the first case which used calcium salt. The experiments were carried out as described in Fernandez-Tornero C et al. J Biol Chem, 2003.

[3] = target: T1, fibroblast growth factor-1 (FGF-1); assay: Crystal diffraction of complexes with FGF-1; conditions: co-crystal, electron density contoured at 1σ; acetoxyl groups conserved on binding
Experimental: Based on the crystal diffraction of the FGF-1:2-acetoxy-5-hydroxybenzene sulfonic acid, FGF-1:5-acetoxy-2-hydroxybenzene sulfonic acid and FGF-1:2,5-diacetoxybenzene sulfonic acid complexes, the structures of the complexes were calculated and represented. FIGS. 13, 14 and 15, which show the surface of the dyed protein according to its electrostatic potential (light grey, negative charge; dark grey, positive charge; white, regions with no charge), show the manner in which 2-acetoxy-5-hydroxybenzene sulfonic acid, 5-acetoxy-2-hydroxybenzene sulfonic acid and 2,5-diacetoxybenzene sulfonic acid interact, respectively, with FGF-1.

[4] = test system: subcutaneous gliomas (rat C6 glioma cells); assay: Progression of established subcutaneous C6 gliomas in rats; format: in vivo; conditions: i.p. 100 mg/kg/day for 10 days; for average size (volume) of subcutaneous gliomas: treatment started 5 days after implantation
Experimental: Rat C6 glioma cells were cultured as previously described (Cuevas P et al. Neurol Res, 2005). The C6 cells cultured to confluence in 75 cm^2 flasks were removed and implanted under the abdominal skin in anesthetized rats. The existence of a tumor in the implantation area was observed five days after the implantation of the tumor cells. Only the rats in which the existence of a tumor was observed were randomly assigned to be treated with daily intraperitoneal injections of 2,5-dihydroxybenzene sulfonate (DHBS; 100 mg/kg/day), 2,5-diacetoxybenzene sulfonate (DABS; 100 mg/kg/day) or the carrier (0.9% NaCl). After 10 days of treatment, the subcutaneous gliomas were removed and their volume was calculated according to the formula V=4/3π·(L/2)·(A/2)^2 (in mm^3) where L is the larger diameter and A is the smaller diameter, both expressed in mm.

[5] = test system: human prostate cancer PC-3 cells; assay: Subcutaneous PC-3 prostate tumor implantation model in athymic mice; format: in vivo, athymic mice (Nu/Nu); conditions: 100 mg/kg daily i.p. for 15 days
Experimental: 5×10^6 human prostate cancer PC-3 cells were subcutaneously injected in male athymic mice (Nu/Nu) of 6-8 weeks of age and weighing 20-26 g. Ten days after the implantation of the tumor cells, the mice were randomly split into two groups: one of them received a daily injection of potassium 2,5-diacetoxybenzene sulfonate (DABS) by intraperitoneal route at a dose of 100 mg/kg dissolved in saline (0.9% NaCl) whereas the other group received a daily injection of carrier (saline). The treatments were administered for 15 days. The volumes of the tumors induced by the implantation of PC-3 cells were measured through the skin on alternating days using a Vernier caliper. The volume was calculated using the formula V=(D×2d)/2, where D is the larger diameter in mm, d is the smaller diameter in mm and V is the volume in mm3. At the end of treatment, the mice were sacrificed and the tumors were weighed.

[6] = test system: rat glioma C6 cells; assay: Rat glioma C6 cell proliferation (crystal violet staining); format: cell-based; conditions: 48 h
Experimental: The cell line used was rat glioma C6 cells. The cells were cultured as previously described (Cuevas P et al. Neurol Res, 2005). The cells were cultured as adherent cells in Dulbecco's modified Eagle's medium, supplemented with 7.5% (v/v) of fetal bovine serum, 10 μg/ml of streptomycin and 10 units/ml of penicillin. The tumor cells were seeded in 24-well plates at a density of 10,000 cells/well, and were incubated at 37° C. in a humidified chamber with 5% CO2. Once adhered, the cells were treated or not (controls) with 2,5-dihydroxybenzoate at 100, 200, 500 or 1000 μM and they were allowed to proliferate for 48 h. After this time the glioma cell proliferation was evaluated by means of staining the fixed cells with crystal violet. The number of cells is proportional to the amount of retained dye, which was spectrophotometrically determined by measuring the absorbance at 595 nm once the dye was extracted from the cells.
The cell line used was the C6 cell line and the experiment was carried out as described in Example 2. Once adhered, the cells were treated or not (controls) with increasing concentrations of 2,5-DHC (10, 25, 50 and 100 μM) and they were allowed to proliferate for 48 h. After this time the glioma cell proliferation was evaluated by means of staining the fixed cells with crystal violet. The number of cells is proportional to the amount of retained dye, which was determined spectrophotometrically by measuring absorbance at 595 nm once the dye was extracted from the cells.
The cell line used was the C6 cell line and the experiment was carried out as described in examples 2 and 3. Once adhered, the cells were treated or not (controls) with (5A-2HBS) (500 μM) or (2A-5HBS) (500 μM) and they were allowed to proliferate for 48 h. After this time the glioma cell proliferation was evaluated by means of staining the fixed cells with crystal violet. The number of cells is proportional to the amount of retained dye, which was determined spectrophotometrically by measuring the absorbance at 595 nm once the dye was extracted from the cells.

[7] = test system: bFGF-induced fibrosis; assay: bFGF-induced fibrosis around subcutaneously implanted gelatin sponges in rats; format: in vivo, Sprague-Dawley rats; conditions: 100 μM in gelatin sponge with bFGF and heparin, subcutaneous, 7 days
Experimental: Sterile gelatin sponges (1 mm^3; Curaspon Dental, Clinimed Holding, Zwanenburg, The Netherlands) were subcutaneously implanted in the dorsal region of the neck in Sprague-Dawley rats after the induction of intraperitoneal anesthesia. The animals were split into two groups: group A, the sponges were moistened with 200 μl of saline solution which contained 25 μg/ml of heparin and 10 μg/ml of basic FGF (bFGF); group B, the sponges were moistened in the same solution as in group A, but which solution further contained 2,5-dihydroxybenzoate (100 μM). After 7 days, the sponges and the surrounding subcutaneous fat were removed and histologically analyzed.

T1 sequence (P05230 whole entry, species assumed): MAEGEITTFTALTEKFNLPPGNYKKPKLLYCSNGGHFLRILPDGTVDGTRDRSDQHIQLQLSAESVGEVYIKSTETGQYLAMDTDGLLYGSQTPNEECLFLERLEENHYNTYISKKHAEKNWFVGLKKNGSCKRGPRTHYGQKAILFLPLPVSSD

SMILES | mitogenesis induced by FGF-1 [2] | binding site on FGF-1 in the crystal complex [3] | average size (volume) of subcutaneous gliomas [4] | rat glioma cell proliferation ([6]; 500 μM) | also measured
CC(=O)Oc1ccc(OC(C)=O)c(S(=O)(=O)[O-])c1.[K+] [DABS, potassium 2,5-diacetoxybenzene sulfonate] | inhibition of mitogenesis | occupy a site that is very close to the one that has been described occupied by 2,5-dihydroxybenzene sulfonic acid | even less |  | tumor cells in apoptosis in glioma sections (hematoxylin and eosin) [1]: a large number of tumor cells in apoptosis; probability of being tumor-free (χ2 test) versus group treated with DHBS [4]: greater probability of being tumor-free; weight of the extracted tumor when treatment ended [5]: significant reduction; tumor growth (tumor volume measured through the skin) ([5]; started 10 days after implantation): significantly reduced
CC(=O)Oc1ccc(O)cc1S(=O)(=O)[O-].[K+] [2A-5HBS, potassium 2-acetoxy-5-hydroxybenzene sulfonate] | inhibition of mitogenesis | occupy a site that is very close to the one that has been described occupied by 2,5-dihydroxybenzene sulfonic acid |  | caused the inhibition of rat glioma cell proliferation | 
O=S(=O)([O-])c1cc(O)ccc1O.[K+] [DHBS, potassium 2,5-dihydroxybenzene sulfonate, reference compound] | inhibition of the mitogenesis |  | less than that of the rats treated with carrier |  | 
CC(=O)Oc1ccc(O)c(S(=O)(=O)[O-])c1.[K+] [5A-2HBS, potassium 5-acetoxy-2-hydroxybenzene sulfonate] | inhibition of mitogenesis | occupy a site that is very close to the one that has been described occupied by 2,5-dihydroxybenzene sulfonic acid |  | caused the inhibition of rat glioma cell proliferation | 
O=C(O)c1cc(O)ccc1O [2,5-dihydroxybenzoate, 2,5-dihydroxybenzoic acid] |  |  |  |  | rat glioma C6 cell proliferation, significance of the effect ([6]; 500 μM): statistically significant; rat glioma C6 cell proliferation, significance of the effect ([6]; 1000 μM): statistically significant; rat glioma C6 cell proliferation (absorbance at 595 nm) ([6]; 100, 200, 500 or 1000 μM): inhibited rat glioma C6 cell proliferation in a concentration-dependent manner; bFGF-induced fibrosis (fibroblasts in septa of connective tissue of adipose tissue) [7]: reduces bFGF-induced fibrosis
